According to patent publication US9839618B2, “Compositions and methods relating to proliferative diseases” (The Penn State Research Foundation, priority 2010, dated 2017):
Read-outs that look alike come from different tables or passages of the source.

Assays:
[1] = system: Breast (MCF-7) cancer cell line; assay: MTS assay viability IC50, MCF-7; assay type: cell-based; conditions: Homo sapiens, MCF7; Table 5
Description: (§1) Dehydroabietylamine, its N-substituted derivatives and the corresponding dihydroabietylamine and its N-substituted derivatives are tested for their capability to inhibit cell growth of cancer cell lines, including melanoma (UACC 903, 1205Lu), breast (MCF-7), fibrosarcoma (HT-1080), colon (Caco-2), and prostate (PC-3) cancer cell lines. Viability and IC50 of normal human fibroblasts and cell lines from melanoma and other malignancies following treatment with all the agents are measured using the MTS assay (Promega, Madison, Wis.). Human fibroblast FF2441 cells, metastatic melanoma cell lines 1205 Lu and UACC 903 as well as cancer cell lines representing sarcoma (HT-1080), prostate (PC-3, LNCaP), breast (MCF-7) and lung (A-549) are maintained in DMEM (Invitrogen, Carlsbad, Calif.) supplemented with 10% FBS (Hyclone, Logan, Utah) in a 5% CO2 atmosphere, humidified 37° C. incubator. 5×10^3 cells per well in 100 μL of media are plated and grown in a 96-well plate for 48 to 72 h and treated with either DMSO vehicle control or 0.62 to 40 μmol/L for 24, 48 or 72 h. IC50 values for each compound in […] for respective cell lines are measured from three independent experiments using GraphPad Prism version 4.01 (GraphPad Software, La Jolla, Calif.). FIG. 52 is a graph showing IC50 values for leelamine and compounds 4a, 4b and 5a in treated fibroblasts (FF2441) compared to melanoma cells. Selectivity ratio here is defined as ratio of activity against fibroblasts compared to activity against melanoma cells. Leelamine is relatively selective with a ratio of >6 and >4 for UACC903 and 1205Lu melanoma cells. The selectivity ratio of compound 4a is ˜4 and ˜3 for UACC903 and 1205Lu and for compound 4b is ˜4 for both cell lines. The selectivity ratio of compound 5a is ˜4 for UACC903 and >2 for 1205Lu cells.

[2] = system: 1205 Lu metastatic melanoma cells; assay: MTS assay viability IC50, 1205 Lu; assay type: cell-based, human; conditions: for IC50: Homo sapiens, 1205Lu; for Selectivity ratio, fibroblasts versus 1205Lu: activity against fibroblasts FF2441 compared to melanoma cells
Description: (§2) The efficacy of leelamine to kill other cancer types is measured and the IC50 for cell lines derived from carcinomas of breast, lung, prostate, connective tissue, pancreas and colon determined. The MTS assay as described in Sharma, A. et al., Clin Cancer Res, 2009, 15:1674-85; and Madhunapantula, S. V. et al., Mol Cancer Ther, 2008, 7:1297-308 is used to establish the IC50 at 24, 48 and 72 hours of leelamine treatment for normal human epidermal melanocytes (FOM103), normal skin fibroblast cells (FF2441), normal skin keratinocytes (HFK) and compared to melanocytic lesion cells from the radial-, vertical- and metastatic melanoma stages. 5×10^3 cells per well in 100 μL of media are plated and grown in a 96-well plate for 48 to 72 hours and treated with either DMSO vehicle control or 0.62 to 40 μmol/L of leelamine for 24, 48 or 72 hours. IC50 values for each compound in μmol/L for respective cell lines are measured from three independent experiments using GraphPad Prism version 4.01 (GraphPad Software, La Jolla, Calif.). Leelamine is found to be not toxic to normal cells and effective to kill melanoma cells as well as non-melanoma cancer cells as shown in Table 1 in FIG. 20. Leelamine is 3- to 4-fold more specific at killing metastatic melanoma than normal cells, supporting cancer therapeutic utility at concentrations<2 μmol/L.
(§3) 5×10^3 cells per well in 100 μL of media are plated and grown in a 96-well plate for 48 to 72 hours and treated with either DMSO vehicle control or 0.62 to 40 μmol/L of leelamine for 24, 48 or 72 hours. IC50 values for each compound in μmol/L for respective cell lines are measured from three independent experiments using GraphPad Prism version 4.01 (GraphPad Software, La Jolla, Calif.).
(§4) The IC50 and effect of liposomal preparations of leelamine on viability of normal human melanocytes, fibroblasts and melanoma cells UACC 903 and 1205 Lu are measured using the MTS assay (Promega, Madison, Wis.). Empty liposomes or liposomes containing abietic acid are used as controls. 5×10^3 cells per well in 100 μL of media are plated and grown in a 96-well plate for 48 or 72 hours for melanoma and normal cell lines, respectively. The cells are then treated with 0.62 to 40 μmol/L of liposome alone, a liposomal preparation of abietic acid, or with Nanolipolee-007 for 24 hours. IC50 values for each liposome in μmol/L for respective cell lines are measured from three independent experiments using GraphPad Prism version 4.01 (GraphPad Software, La Jolla, Calif.). Nanolipolee-007 retains the growth inhibitory activity of leelamine in killing melanoma cells in culture and specifically kills melanoma cells compared to normal cells, FIG. 24.
as §1, with “FIG. 52 is a graph showing IC50 values for leelamine and compounds 4a, 4b and 5a in treated fibroblasts (FF2441) compared to melanoma cells. Selectivity ratio here is defined as ratio of activity against fibroblasts compared to activity against melanoma cells. Leelamine is relatively selective with a ratio of >6 and >4 for UACC903 and 1205Lu melanoma cells. The selectivity ratio of compound 4a is ˜4 and ˜3 for UACC903 and 1205Lu and for compound 4b is ˜4 for both cell lines. The selectivity ratio of compound 5a is ˜4 for UACC903 and >2 for 1205Lu cells.” left out

[3] = system: Prostate (LnCap) cancer cell line; assay: MTS assay viability IC50, LnCap; assay type: cell-based; conditions: Homo sapiens, Table 5
Description: as §1

[4] = system: UACC 903 metastatic melanoma cells; assay: MTS assay viability IC50, UACC 903; assay type: cell-based, human; conditions: for IC50: Homo sapiens, UACC-903; for Selectivity ratio, fibroblasts versus UACC903: activity against fibroblasts FF2441 compared to melanoma cells
Description: as §2, §3, §4
as §1, with “FIG. 52 is a graph showing IC50 values for leelamine and compounds 4a, 4b and 5a in treated fibroblasts (FF2441) compared to melanoma cells. Selectivity ratio here is defined as ratio of activity against fibroblasts compared to activity against melanoma cells. Leelamine is relatively selective with a ratio of >6 and >4 for UACC903 and 1205Lu melanoma cells. The selectivity ratio of compound 4a is ˜4 and ˜3 for UACC903 and 1205Lu and for compound 4b is ˜4 for both cell lines. The selectivity ratio of compound 5a is ˜4 for UACC903 and >2 for 1205Lu cells.” left out

[5] = system: Fibrosarcoma (HT-1080) cancer cell line; assay: MTS assay viability IC50, HT-1080; assay type: cell-based; conditions: Homo sapiens, Table 5, read-out: IC50 Fibro Sarcoma (HT-1080)
Description: as §1

[6] = system: Prostate (PC-3) cancer cell line; assay: MTS assay viability IC50, PC-3; assay type: cell-based; conditions: Table 5
Description: as §1

[7] = Table 4, read-out: IC50 Metastatic Melanoma Cell line 1205Lu
[8] = Table 6, read-out: IC50 Metastatic melanoma 1205 Lu
[9] = Table 4, read-out: IC50 Metastatic Melanoma Cell line UACC903
[10] = Table 5, read-out: IC50 Melanoma (UACC903)
[11] = Table 6, read-out: IC50 Metastatic melanoma UACC 903
[12] = Table 7, read-out: IC50 (UACC903)

Row | IC50 [1] [nM] | IC50 [2, 7] [nM] | IC50 [2, 8] [nM] | IC50 [3] [nM] | IC50 [4, 9] [nM] | IC50 [4, 10] [nM] | IC50 [4, 11] [nM] | IC50 [4, 12] [nM] | IC50 [5] [nM] | IC50 [6] [nM] | IC50 ([2]; Example 8, read-out: IC50 1205Lu) [nM] | IC50 ([4]; Example 8, read-out: IC50 UACC 903) [nM] | Compound | Selectivity ratio, fibroblasts versus 1205Lu [2] | Selectivity ratio, fibroblasts versus UACC903 [4]
1 | > 100000 | > 100000 | > 100000 | > 100000 | > 100000 | > 100000 | > 100000 | > 100000 | > 100000 | > 100000 |  |  | CC(C)C1=CC2=CCC3[C@](C)(CCC[C@@]3(C)C(=O)O)C2CC1 (stereo partly drawn) [Abietic acid, (1R,4aR)-1,4a-dimethyl-7-(propan-2-yl)-1,2,3,4,4a,4b,5,6,10,10a-decahydrophenanthrene-1-carboxylic acid, reference compound] |  | 
2 | 6420 ± 520 |  | 1930 ± 160 | 10900 ± 2110 |  | 1350 ± 500 | 1350 ± 50 | 1350 | 3750 ± 540 | 4850 ± 1090 |  |  | CC(C)c1ccc2c(c1)CCC1[C@](C)(CN)CCC[C@]21C (stereo partly drawn) [Leelamine, [(1R,4aS)-1,4a-dimethyl-7-(propan-2-yl)-1,2,3,4,4a,9,10,10a-octahydrophenanthren-1-yl]methanamine] | > 4 | > 6
3 | 4390 ± 710 | 2080 ± 50 | 2080 ± 50 | 8630 ± 970 | 1280 ± 50 | 1280 ± 50 | 1280 ± 50 | 1280 | 3730 ± 540 | 4660 ± 550 |  |  | CC(C)c1ccc2c(c1)CCC1[C@](C)(CNC(=O)C(F)(F)F)CCC[C@]21C (stereo partly drawn) [Compound 5a, N-{[(1R,4aS)-1,4a-dimethyl-7-(propan-2-yl)-1,2,3,4,4a,9,10,10a-octahydrophenanthren-1-yl]methyl}-2,2,2-trifluoroacetamide] | > 2 | ~4
4 | 8690 ± 1810 | 2870 ± 70 | 2870 ± 70 | 14800 ± 1990 | 2130 ± 190 | 2360 ± 250 | 2130 ± 190 | 2130 | 6290 ± 1100 | 9730 ± 1040 | 2870 | 2130 | CC(C)C1=CC2=CCC3[C@](C)(CN)CCC[C@]3(C)C2CC1 (stereo partly drawn) [Compound 4a, {[(1R,4aR)-1,4a-dimethyl-7-(propan-2-yl)-1,2,3,4,4a,4b,5,6,10,10a-decahydrophenanthren-1-yl]methyl}amine] | ~3 | ~4
